Here are results for 11 compounds from patent KR20110129297A, “양친매성 갈롤 유도체를 유효성분으로 포함하는 항균제조성물” (전남대학교산학협력단, priority 2010, dated 2011).

For data set [1], the system named is Helicobacter pylori [헬리코박터 파일로리]. Kind of data set: Paper disc growth inhibition zone, Helicobacter pylori. The class given is cell-based. The following applies: for zone of inhibition at 5 µmol/disc: Helicobacter pylori, read-out: diameter of growth inhibition zone.
The test system of data set [2] is food spoilage bacteria and pathogens [식품부패균 및 병원성균]. Kind of data set: Paper disc growth inhibition zone, food spoilage bacteria and pathogens (9 strains). The following applies: 5 μmol per disc, solid medium, 12-16 h at 37, 30 or 25 °C depending on strain. The class given is cell-based.
The conditions of data set [3]: no test in this patent; mouse allergy test of urushiol derivatives cited (b4); cited from earlier work.
The subject of data set [4] is food spoilage bacteria and pathogens [식품부패균 및 병원성균]. As to the kind of experiment: Minimum inhibitory concentration, food spoilage bacteria and pathogens (9 strains). The class given is cell-based. The conditions noted are these: liquid dilution 1000-4 μg/mL.
For data set [5] the following is noted: cited master's thesis / KR 2009066135 A; cited from earlier work.
Another data set has as its system S. aureus. As to the kind of experiment: Minimum inhibitory concentration, Staphylococcus aureus. The conditions noted are these: 37 °C, 12-16 h, inoculum 10^5-10^7 cfu/mL, read-out: minimum inhibition concentration (MIC). It is filed as cell-based.
The subject of data set [6] is cells causing lung cancer or stomach cancer [폐암이나 위암을 일으키는 세포]. The conditions noted are these: background statement; cited from earlier work.
[7] abbreviates: paper disc, 5 μmol per disc, CO2 incubator 37 °C, 10% CO2, 95% humidity.

≈ marks a conversion by molar mass, not a printed value. Entries after “also recorded” stand apart in the source; their conditions may differ. Read-outs that look alike come from different tables or passages of the source.

The zone of inhibition is the size of the clear area around the sample on an inoculated plate.

Regarding `CCCCCc1ccc(O)c(O)c1O` [PG, 4-pentyl-1,2,3-benzenetriol], the zone of inhibition at 5 µmol/disc in data set [1] (setting [7]) came out at 26.7 ± 0.6 mm. For the same compound, the “antimicrobial activity (growth inhibition zone), in words” value is “가장 강한 항균활성을 보였다” in data set [1] (paper disc, 5 μmol per disc, compared with other gallol derivatives) and “가장 강한 항균활성을 보였다; also recorded: PC와 비슷하거나 그보다 우수한 항균활성을 보였다” in data set [2]. The “allergenicity, in words” value in data set [3] is recorded as “알러지 비유발성”. The “antimicrobial activity by minimum inhibition concentration, in words” value in data set [4] is reported as “최소저해농도 결과에 있어서 뛰어난 항균활성을 나타내지 않았다; also recorded: 측쇄가 없는 G보다는 PG가 더 낮은 농도에서 활성을 보였다”. As for `CCCCCc1cccc(O)c1O` [PC, 3-pentylcatechol], the zone of inhibition at 5 µmol/disc in data set [1] (setting [7]) is 31.5 ± 0.5 mm. Further, in data set [5], the “antimicrobial activity, in words” value is “강한 항균활성을 보였던”. Also, the “allergenicity, in words” value in data set [3] is reported as “알러지 비유발성”. Take `O=C(O)c1ccccc1` [벤조익 에시드, benzoic acid]: in the data set with S. aureus, the MIC was 250 µM (≈ 30.5 µg/mL). As for `CCn1cc(C(=O)O)c(=O)c2ccc(C)nc21` [날리디식 에시드, nalidixic acid], the zone of inhibition at 5 µmol/disc in data set [1] (setting [7]) was determined as 11 ± 0.2 mm.

Regarding `CCCCCCCCCCCCCCCc1ccc(O)c(O)c1O` [PDG, 4-pentadecyl-1,2,3-benzenetriol], the zone of inhibition at 5 µmol/disc in data set [1] was 0 mm. Further, the “antimicrobial activity (growth inhibition zone), in words” value in data set [2] was “전혀 항균활성을 보이지 않았다”. In the case of `CCCCCCCCCCCCCCCCCCCCc1ccc(O)c(O)c1O` [EG, 4-eicosyl-1,2,3-benzenetriol], in data set [1] (setting [7]), the zone of inhibition at 5 µmol/disc was found to be 0 mm. Further, the “antimicrobial activity (growth inhibition zone), in words” value in data set [2] is given as “전혀 항균활성을 보이지 않았다”. `CC1(C)S[C@@H]2[C@H](NC(=O)[C@H](N)c3ccccc3)C(=O)N2[C@H]1C(=O)O` [앰피실린, ampicillin]: the zone of inhibition at 5 µmol/disc in data set [1] (setting [7]) is 7 mm. On the same count and under the same terms, as for `CC[C@H]1OC(=O)[C@H](C)[C@@H](O[C@H]2C[C@@](C)(OC)[C@@H](O)[C@H](C)O2)[C@H](C)[C@@H](O[C@@H]2O[C@H](C)C[C@H](N(C)C)[C@H]2O)[C@](C)(O)C[C@@H](C)C(=O)[C@H](C)[C@@H](O)[C@]1(C)O` [에리스로마이신, erythromycin], the figure is 7 mm; as for `CN(C)[C@@H]1C(O)=C(C(N)=O)C(=O)[C@@]2(O)C(O)=C3C(=O)c4c(O)cccc4[C@@](C)(O)[C@H]3C[C@@H]12` [테트라사이클린, tetracycline], 9 mm. Still for that read-out and setting: the result for `CCCCCCCCCCc1ccc(O)c(O)c1O` [DG, 4-decyl-1,2,3-benzenetriol] reads 7 mm. For `Oc1cccc(O)c1O` [G, pyrogallol], in data set [1] (setting [7]), the zone of inhibition at 5 µmol/disc turned out to be 0 mm. The “antimicrobial activity (growth inhibition zone), in words” value in data set [2] is on record as “매우 약한 항균활성을 보였으며”. In data set [6], the “inhibition of cancer cell growth, in words” value was “폐암이나 위암을 일으키는 세포의 생장을 억제시키는 항암작용에도 효과가 있음”.
